Literature values in US7517693B2, “Method and apparatus for determining a molecular descriptor of absorption for a candidate compound” (North Carolina State University, priority 2002, dated 2009).

details: Table IV study compounds

First: O=[N+]([O-])c1ccc(O)cc1 [4-Nitrophenol]
Second: CCOP(=S)(OCC)Oc1ccc([N+](=O)[O-])cc1 [Parathion]
The logKo/w of the first is lower: 1.91 for the first, 3.83 for the second.

Going from Oc1cccc(O)c1 [Resorcinol] to O=S1OCC2C(CO1)C1(Cl)C(Cl)=C(Cl)C2(Cl)C1(Cl)Cl (stereo not drawn) [endosulfan II], the logKo/w rises from 0.8 to 3.83.

Compared with ClC1=C(Cl)C2(Cl)C3C4OC4C(Cl)C3C1(Cl)C2(Cl)Cl (stereo not drawn) [heptachlor epoxide], Cc1cccc(O)c1 [m-cresol] is lower in logKo/w: 4.98 for the first, 1.95 for the second.

Compared with Cc1cccc(C)c1 [m-xylene], COC(=O)c1cccnc1 [methyl nicotinate] is lower in logKo/w: 3.20 for the first, 0.64 for the second.

Compared with COC(=O)c1ccccc1O [methyl salicylate], O=C(O)c1ccccc1O [salicylic acid] is lower in logKo/w: 2.55 for the first, 2.26 for the second.

For Nonylphenol, the logKo/w is listed as 5.99.

details: Table III calibration compounds; 25° C.; known literature descriptor

For O=[N+]([O-])c1ccc(O)cc1 [4-Nitrophenol], the “logL^16 (solute gas-hexadecane partition coefficient)” value is given as 5.876.

same assay, conditions: Table III calibration compounds; known literature descriptor

For O=[N+]([O-])c1ccc(O)cc1 [4-Nitrophenol], the “α (effective solute H-bond acidity)” value is given as 0.82.

In the case of O=[N+]([O-])c1ccc(O)cc1 [4-Nitrophenol], the “β (effective solute H-bond basicity)” value is listed as 0.26.

For O=[N+]([O-])c1ccc(O)cc1 [4-Nitrophenol], the “π (effective solute dipolarity and polarizability)” value is listed as 1.72.
